Experimental data as given in patent US20230286928A1, “HETEROCYCLIC COMPOUNDS USEFUL IN THE TREATMENT OF DISEASE” (Epigen Biosciences, Inc., priority 2018, published 2023).
pIC50: −log10 of the molar value.

Biological target: T1, LPA1R (Homo sapiens, UniProt Q92633)
T1 construct: host or cells: LPA1R expressing cells (Millipore, GPCR Profiler)
Assay: Calcium flux assay: inhibition of LPA-stimulated Ca2+ flux (FLIPR, antagonist mode)
Format: cell-based
Details: LPA1R Ca2+ flux functional assay, LPA1R expressing cells challenged with EC80 of LPA, read-out: LPA1 R Antagonist Activity
Protocol: Inhibition of LPA-stimulated Ca^2+ flux was used to assess compound potency using FLIPR technology in a 96 well plate format. The assay buffer used was a modified Hanks Balanced Salt Solution (HBSS) where HBSS was supplemented to contain 20 mM HEPES and 2.5 mM Probenecid at pH7.4 (Millipore, GPCR Profiler®). LPA1R expressing cells (Millipore) were plated and prepared 24 hours prior to assay of test articles. Ca^2+ ion flux was assessed from fluorescence of a Fluo-based No Wash Ca^2+ dye. Antagonist data are generated from plates with LPA concentrations sufficient to generate 80% efficacy [EC80]. Percentage inhibition was calculated from a reduction of efficacy according to concentration of compounds of Formula I-VI. For dose responses the inhibition data was used to calculate compound IC50.
The agonist assay was conducted on a FLIPR^TETRA instrument where the test compound(s), vehicle controls, and reference agonist were added to the assay plate after a fluorescence baseline was established. The agonist assay was a total of 180 seconds and was used to assess each compound's ability to activate each GPCR assayed. Upon completion of the agonist assay, the assay plate was removed from the FLIPR^TETRA and incubated at 25° C. for seven (7) minutes. After the incubation period, the assay plate was placed back in the FLIPR^TETRA and the antagonist assay was initiated.
Antagonist Assay: Using EC80 potency values determined during the agonist assay, all pre-incubated sample compound wells were challenged with EC80 concentration of reference agonist after establishment of a fluorescence baseline. The antagonist assay was conducted using the same assay plate that was used for the agonist assay. The antagonist assay was conducted on a FLIPR^TETRA instrument where 9 vehicle controls and EC80 concentration of reference agonist were added to appropriate wells. The antagonist assay was a total of 180 seconds and was used to assess each compound's ability to inhibit each GPCR assayed.
Data Processing: All assay plate data were subjected to appropriate baseline corrections. After baseline corrections were applied, maximum fluorescence values were exported and data processed to calculate percentage activation (relative to Emax reference agonist and vehicle control values), percentage inhibition (relative to EC80 and vehicle control values), and additional statistical values (i.e. Z′, percentage variation between replicate data values) to assess the quality of each plate. Where assay plate data were rejected, additional experiments were conducted. All dose response curves were generated using GraphPad Prism. The curves were fit by utilizing “Sigmoidal Dose Response (Variable Slope)” equation where the bottom parameter was fixed to “0.” Where appropriate, the top parameter was fixed to “100” to better predict potency values when a full curve was not generated by the concentrations assayed.

T1 sequence (Q92633 whole entry): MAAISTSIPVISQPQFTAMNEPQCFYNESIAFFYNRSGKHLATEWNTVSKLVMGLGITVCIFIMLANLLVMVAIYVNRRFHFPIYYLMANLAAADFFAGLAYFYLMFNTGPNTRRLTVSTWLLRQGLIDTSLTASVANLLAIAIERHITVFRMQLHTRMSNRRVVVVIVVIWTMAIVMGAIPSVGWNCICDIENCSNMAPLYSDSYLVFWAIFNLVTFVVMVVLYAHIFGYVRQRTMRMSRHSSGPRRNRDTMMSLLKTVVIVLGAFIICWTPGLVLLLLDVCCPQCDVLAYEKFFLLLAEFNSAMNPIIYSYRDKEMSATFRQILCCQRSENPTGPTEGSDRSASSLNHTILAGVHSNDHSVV

pIC50	SMILES
4.30 to 6.00	C[C@@H](OC(=O)Nc1c(Cl)cnn1-c1ccc(-c2ccc(C3(C(=O)NC#N)CC3)cc2)cc1)c1ccccc1Cl [Compound 25, (R)-1-(2-chlorophenyl)ethyl (4-chloro-1-(4′-(1-(cyanocarbamoyl)cyclopropyl)-[1,1′-biphenyl]-4-yl)-1H-pyrazol-5-yl)carbamate]
> 6.52	C[C@@H](OC(=O)Nc1c(F)cnn1-c1ccc(-c2ccc(C3(C(=O)NC#N)CC3)cc2F)cc1)c1ccccc1Cl [Compound 26, (R)-1-(2-chlorophenyl)ethyl (1-(4′-(1-(cyanocarbamoyl)cyclopropyl)-2′-fluoro-[1,1′-biphenyl]-4-yl)-4-fluoro-1H-pyrazol-5-yl)carbamate]
> 6.52	C[C@@H](OC(=O)Nc1c(C#N)cnn1-c1ccc(-c2ccc(C(C)(C)C(=O)O)cc2)cc1)c1ccccc1Cl [Compound 27, (R)-2-(4′-(5-(((1-(2-chlorophenyl)ethoxy)carbonyl)amino)-4-cyano-1H-pyrazol-1-yl)-[1,1′-biphenyl]-4-yl)-2-methylpropanoic acid]
> 6.52	C[C@@H](OC(=O)Nc1c(C#N)cnn1-c1ccc(-c2ccc(C(C)(C)C(=O)O)cc2)cc1)c1ccccc1 [Compound 28, (R)-2-(4′-(4-cyano-5-(((1-phenylethoxy)carbonyl)amino)-1H-pyrazol-1-yl)-[1,1′-biphenyl]-4-yl)-2-methylpropanoic acid]
